Columns and labels:
Ba/F3 [EML4-ALK L1196M] [1] = target: T1, Ba/F3 [EML4-ALK L1196M] (Homo sapiens, UniProt Q9UM73, L1196M, cells depend on it); assay: Cytotoxicity test (CellTiter-Glo), Ba/F3 [EML4-ALK L1196M]; assay type: cell-based; details: 72 hours, CellTiter-Glo; read-out: IC50(nM) ALK[L1196M] (Ba/F3)
T1 construct: IC50(nM) ALK[L1196M]; (Ba/F3); other: 72 hours, CellTiter-Glo; Ba/F3 [EML4-ALK L1196M]; fused on or other part: Q9HC35 (Echinoderm microtubule-associated protein-like 4)
Protocol: (§1) The in vitro anti-proliferative activity of the compounds of the present disclosure against three types of cells that are cultured in vitro was tested by CellTiter-Glo method.
(§2) Cell lines: Ba/F3 parental; Ba/F3 [EML4-ALK] (From WuXi PharmaTech) and Ba/F3 [EML4-ALK L1196M] (From WuXi PharmaTech); wherein, Ba/F3 parental was cultured in RPMI1640 medium containing 10 ng/ml IL-3, […], 100 U/ml penicillin, and 100 μg/ml streptomycin, Ba/F3 [EML4-ALK] and Ba/F3 [EML4-ALK L1196M] were cultured in RPMI1640 medium containing 10% fetal bovine serum, 100 U/ml penicillin, and 100 μg/ml streptomycin.
(§3) Reagents and materials: RPMI-1640 (GIBCO, Cat. No. A10491-01); fetal bovine serum (GIBCO, Cat. No. 10099141); 0.25% trypsin-EDTA (GIBCO, Cat. No. 25200); penicillin-streptomycin, liquid (GIBCO, Cat. No. 15140-122); DMSO (Sigma, Cat. No. D2650); CellTiter-Glo Test Kit (Promega, Cat. No. G7572), and 96-well plate (Corning, Cat. No. 3365).
(§4) Specific experimental procedures: • 1. The test compounds were dissolved in DMSO to make stock solutions and subjected to a series gradient dilution to give solutions with 10-fold working concentration. • 2. The cells in the logarithmic growth phase were diluted with the culture solution to adjust to the specific cell concentration, 90 μl of cell suspension was added to the 96-well plate to make the cell density reach the specified concentration. The plate was incubated in a incubator at 37° C., containing 5% carbon dioxide gas overnight. • 3. 10 μl drug solutions were added to each well of the 96-well plate inoculated with cells. 10 concentrations of the compounds were tested starting from the highest concentration of 20 μM with a 3-fold series gradient dilution in duplicate. • 4. After continuously cultured for 72 hours, the cells were detected by CellTiter-Glo for the cell viability. The dose-effect curve was made using GraphPad Prism software and IC50 was calculated.

Ba/F3 [EML4-ALK L1196M] [2] = assay: as above; assay type: cell-based; details: ratio of Ba/F3 IC50 values
Protocol: as §1, §2, §3, §4

ALK [WT] = ALK [WT] (Homo sapiens, UniProt Q9UM73); assay: Kinase inhibition assay, ALK [WT]; assay type: biochemical
Protocol: (§5) Compound preparation: The test compounds were dissolved in DMSO to make 20 mM stock solutions. The compounds were diluted in DMSO to 0.1 mM (a dilution with 100 times the final concentration) before use, and a 3-fold series gradient dilution with 11 concentrations was made. Dilutions with 4 times of the final concentration were prepared by diluting with buffer when dosing.
(§6) Kinase assay: after preparing the buffer solution, the enzyme was mixed with pre-diluted compounds with different concentrations, and placed at room temperature for 30 minutes in duplicate. The corresponding substrate and ATP were added thereto and reacted at room temperature for 60 minutes (both a negative and a positive control were set). After the reaction, antibody was added for detection, and after incubation at room temperature for 60 minutes, Evnvision detection was carried out, and data was collected. Data was analyzed and fit according to XLfit5 software. IC50 was calculated by the following formula: (IC50=[(ABS test-ABS begin)/(ABS control-ABS begin)]×100).

Ba/F3 [EML4-ALK] [3] = assay: Cytotoxicity test (CellTiter-Glo), Ba/F3 [EML4-ALK]; assay type: cell-based; details: ratio of Ba/F3 IC50 values
Protocol: as §1, §2, §3, §4

Ba/F3 [EML4-ALK] [4] = target: T2, Ba/F3 [EML4-ALK] (Homo sapiens, UniProt Q9UM73); assay: as above; assay type: cell-based; details: 72 hours, CellTiter-Glo; read-out: IC50(nM) ALK (Ba/F3)
T2 construct: IC50(nM) ALK (Ba/F3); other: 72 hours, CellTiter-Glo; Ba/F3 [EML4-ALK]; fused on or other part: Q9HC35 (Echinoderm microtubule-associated protein-like 4)
Protocol: as §1, §2, §3, §4

ALK [L1196M] = ALK [L1196M] (Homo sapiens, UniProt Q9UM73, L1196M); assay: Kinase inhibition assay, ALK [L1196M]; assay type: biochemical
Protocol: as §5, §6

Ba/F3 parental = assay: Cytotoxicity test (CellTiter-Glo), Ba/F3 parental; assay type: cell-based; details: Mus musculus, BaF3, 72 hours
Protocol: as §1, §2, §3, §4

T1 sequence (Q9UM73 whole entry L1196M, the tested form may be a part): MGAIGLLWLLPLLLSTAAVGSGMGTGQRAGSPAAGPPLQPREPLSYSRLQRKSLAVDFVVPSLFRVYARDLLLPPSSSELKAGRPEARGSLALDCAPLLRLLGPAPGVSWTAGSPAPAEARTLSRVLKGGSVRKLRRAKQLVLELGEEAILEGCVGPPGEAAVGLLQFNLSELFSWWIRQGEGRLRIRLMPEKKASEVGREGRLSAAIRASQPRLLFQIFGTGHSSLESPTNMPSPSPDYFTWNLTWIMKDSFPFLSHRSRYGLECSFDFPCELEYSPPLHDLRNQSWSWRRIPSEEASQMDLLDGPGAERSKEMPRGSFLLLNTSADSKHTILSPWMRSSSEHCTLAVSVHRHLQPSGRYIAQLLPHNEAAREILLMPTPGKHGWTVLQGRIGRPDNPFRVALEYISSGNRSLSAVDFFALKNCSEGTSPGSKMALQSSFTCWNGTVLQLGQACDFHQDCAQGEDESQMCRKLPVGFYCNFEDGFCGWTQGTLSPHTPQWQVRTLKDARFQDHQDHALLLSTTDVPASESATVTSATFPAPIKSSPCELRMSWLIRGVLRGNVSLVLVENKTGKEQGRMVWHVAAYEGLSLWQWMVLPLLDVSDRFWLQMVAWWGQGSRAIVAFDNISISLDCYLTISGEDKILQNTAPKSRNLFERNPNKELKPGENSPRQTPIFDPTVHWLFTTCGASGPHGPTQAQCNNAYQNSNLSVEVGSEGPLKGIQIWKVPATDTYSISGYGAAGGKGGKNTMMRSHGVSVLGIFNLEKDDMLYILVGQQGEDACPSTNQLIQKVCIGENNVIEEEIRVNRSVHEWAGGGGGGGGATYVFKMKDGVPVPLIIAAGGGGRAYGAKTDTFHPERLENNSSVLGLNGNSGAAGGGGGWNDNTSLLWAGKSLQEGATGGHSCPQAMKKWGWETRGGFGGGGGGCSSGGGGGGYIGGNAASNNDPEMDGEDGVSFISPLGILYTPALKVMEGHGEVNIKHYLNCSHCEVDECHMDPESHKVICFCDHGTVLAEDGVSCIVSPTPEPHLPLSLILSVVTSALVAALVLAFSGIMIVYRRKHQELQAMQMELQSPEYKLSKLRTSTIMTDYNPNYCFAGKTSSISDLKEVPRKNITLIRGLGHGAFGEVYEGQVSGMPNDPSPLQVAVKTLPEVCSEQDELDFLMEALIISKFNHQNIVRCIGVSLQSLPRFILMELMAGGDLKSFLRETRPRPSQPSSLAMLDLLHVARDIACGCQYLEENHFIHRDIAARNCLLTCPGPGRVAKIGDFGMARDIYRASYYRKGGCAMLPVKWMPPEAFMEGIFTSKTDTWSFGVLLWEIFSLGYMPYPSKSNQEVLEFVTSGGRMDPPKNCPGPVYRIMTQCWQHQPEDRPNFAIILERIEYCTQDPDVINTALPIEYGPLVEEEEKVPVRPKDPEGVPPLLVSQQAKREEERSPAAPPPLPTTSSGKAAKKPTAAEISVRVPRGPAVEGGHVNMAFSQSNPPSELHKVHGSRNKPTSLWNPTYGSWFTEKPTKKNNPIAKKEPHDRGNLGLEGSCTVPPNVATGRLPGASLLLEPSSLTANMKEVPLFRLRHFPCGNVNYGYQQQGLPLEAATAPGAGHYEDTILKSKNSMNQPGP
Chain of ALK [L1196M] (Q9UM73 19-1620 L1196M): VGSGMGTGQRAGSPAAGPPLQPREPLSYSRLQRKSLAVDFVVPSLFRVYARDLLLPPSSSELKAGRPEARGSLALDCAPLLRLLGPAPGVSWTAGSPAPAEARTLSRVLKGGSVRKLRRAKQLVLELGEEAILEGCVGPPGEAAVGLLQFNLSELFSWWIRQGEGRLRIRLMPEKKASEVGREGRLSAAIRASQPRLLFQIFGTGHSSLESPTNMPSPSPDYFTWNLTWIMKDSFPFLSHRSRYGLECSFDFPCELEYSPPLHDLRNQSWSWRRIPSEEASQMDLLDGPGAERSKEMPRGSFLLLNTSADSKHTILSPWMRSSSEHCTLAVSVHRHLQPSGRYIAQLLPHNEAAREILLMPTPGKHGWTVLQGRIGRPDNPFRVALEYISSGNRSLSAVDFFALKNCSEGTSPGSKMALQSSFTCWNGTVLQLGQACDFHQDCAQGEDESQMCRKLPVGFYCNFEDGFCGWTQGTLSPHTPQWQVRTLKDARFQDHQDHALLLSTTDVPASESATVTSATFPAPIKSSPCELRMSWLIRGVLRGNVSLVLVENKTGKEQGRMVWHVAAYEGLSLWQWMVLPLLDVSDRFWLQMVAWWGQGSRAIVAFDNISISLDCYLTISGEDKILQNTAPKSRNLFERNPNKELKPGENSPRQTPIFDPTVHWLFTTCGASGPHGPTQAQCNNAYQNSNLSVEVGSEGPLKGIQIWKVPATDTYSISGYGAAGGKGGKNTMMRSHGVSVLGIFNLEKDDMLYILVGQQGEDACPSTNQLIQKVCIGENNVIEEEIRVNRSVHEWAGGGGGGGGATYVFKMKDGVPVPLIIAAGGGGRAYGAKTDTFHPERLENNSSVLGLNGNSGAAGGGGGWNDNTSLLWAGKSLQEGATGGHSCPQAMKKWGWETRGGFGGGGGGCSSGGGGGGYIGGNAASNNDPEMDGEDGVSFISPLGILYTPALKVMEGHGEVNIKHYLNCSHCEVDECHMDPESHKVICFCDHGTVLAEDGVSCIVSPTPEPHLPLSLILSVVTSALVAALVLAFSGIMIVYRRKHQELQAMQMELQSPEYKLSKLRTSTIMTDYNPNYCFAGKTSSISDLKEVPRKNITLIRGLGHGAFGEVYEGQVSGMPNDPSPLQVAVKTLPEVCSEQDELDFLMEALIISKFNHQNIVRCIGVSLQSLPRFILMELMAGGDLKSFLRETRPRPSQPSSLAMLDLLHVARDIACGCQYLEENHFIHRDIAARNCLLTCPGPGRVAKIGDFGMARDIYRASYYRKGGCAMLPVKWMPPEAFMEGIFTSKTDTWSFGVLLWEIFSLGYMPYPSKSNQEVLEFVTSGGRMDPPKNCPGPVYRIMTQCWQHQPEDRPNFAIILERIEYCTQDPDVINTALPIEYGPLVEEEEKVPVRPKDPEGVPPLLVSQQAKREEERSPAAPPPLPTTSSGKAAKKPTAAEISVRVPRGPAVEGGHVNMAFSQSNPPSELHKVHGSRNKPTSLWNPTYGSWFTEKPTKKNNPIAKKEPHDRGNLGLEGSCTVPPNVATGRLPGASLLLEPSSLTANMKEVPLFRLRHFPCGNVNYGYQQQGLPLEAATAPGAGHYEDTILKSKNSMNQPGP
T2 sequence (Q9UM73 whole entry, change not shown, the tested form may be a part): as the sequence (Q9UM73 whole entry L1196M, the tested form may be a part) above, with M1196L counted along it
Chain of ALK [WT] (Q9UM73 19-1620): as the sequence (Q9UM73 19-1620 L1196M) above, with M1178L counted along it

IC50 (ALK [WT]) | IC50 (ALK [L1196M]) | SMILES | GI50 (Ba/F3 [EML4-ALK L1196M] [1]) | Selectivity parental/ALK[L1196M] (Ba/F3 [EML4-ALK L1196M] [2]) | Selectivity parental/ALK (Ba/F3 [EML4-ALK] [3]) | GI50 (Ba/F3 [EML4-ALK] [4]) | IC50 (Ba/F3 parental)
≤ 5 nM | 5 to 10 nM | COc1nc(N2CCC(N(C)C)CC2)ccc1Nc1ncc(Cl)c(Nc2ccccc2P(C)(C)=O)n1 [Example 1, (2-((5-chloro-2-((6-(4-(dimethylamino)piperidin-1-yl)-2-methoxypyridin-3-)amino)pyrimidin-4-yl)amino)phenyl)dimethylphosphine oxide] | 50 to 100 nM | 0~50 | 50~100 | ≤ 50 nM | ≥ 1000 nM
≤ 5 nM | ≤ 5 nM | COc1nc(N2CCN(C)CC2)ccc1Nc1ncc(Cl)c(Nc2ccccc2P(C)(C)=O)n1 [Example 2, (2-((5-chloro-2-((2-methoxy-6-(4-methylpiperazin-1-yl)pyridin-3-yl)amino)pyrimidin-4-yl)amino)phenyl)dimethylphosphine oxide] | 50 to 100 nM | 0~50 | 50~100 | ≤ 50 nM | ≥ 1000 nM
≤ 5 nM | 5 to 10 nM | COc1nc(N(C)CCN(C)C)ccc1Nc1ncc(Cl)c(Nc2ccccc2P(C)(C)=O)n1 [Example 3, (2-((5-chloro-2-((6-((2-(dimethylamino)ethyl)(methyl)amino)-2-methoxypyridin-3-yl)amino)pyrimidin-4-yl)amino)phenyl)dimethylphosphine oxide] | 50 to 100 nM | 50~100 | 100~200 | ≤ 50 nM | ≥ 1000 nM
5 to 10 nM | 5 to 10 nM | COc1nc(N2CCC(N3CCN(C)CC3)CC2)ccc1Nc1ncc(Cl)c(Nc2ccccc2P(C)(C)=O)n1 [Example 4, (2-((5-chloro-2-((2-methoxy-6-(4-(4-methylpiperazin-1-yl)piperidin-1-yl)pyridin-3-yl)amino)pyrimidin-4-yl)amino)phenyl)dimethylphosphine oxide] | 50 to 100 nM | 0~50 | 50~100 | ≤ 50 nM | ≥ 1000 nM
5 to 10 nM | ≤ 5 nM | CC(C)Oc1nc(N2CCC(N(C)C)CC2)ccc1Nc1ncc(Cl)c(Nc2ccccc2P(C)(C)=O)n1 [Example 5, (2-((5-chloro-2-((6-(4-(dimethyaminono)piperidin-1-yl)-2-isopropoxypyridin-3-yl)amino)pyrimidin-4-yl)amino)phenyl)dimethylphosphine oxide] | 50 to 100 nM | 50~100 | 100~200 | ≤ 50 nM | ≥ 1000 nM
5 to 10 nM | ≤ 5 nM | CC(C)Oc1nc(N2CCN(C)CC2)ccc1Nc1ncc(Cl)c(Nc2ccccc2P(C)(C)=O)n1 [Example 6, (2-((5-chloro-2-((2-isopropoxy-6-(4-methylpiperazin-1-yl)pyridin-3-yl)amino)pyrimidin-4-yl)amino)phenyl)dimethylphosphine oxide] | 100 to 400 nM | 50~100 | 200~400 | ≤ 50 nM | ≥ 1000 nM
10 to 50 nM | 5 to 10 nM | CC(C)Oc1nc(N(C)CCN(C)C)ccc1Nc1ncc(Cl)c(Nc2ccccc2P(C)(C)=O)n1 [Example 7, (2-((5-chloro-2-((6-((2-(dimethylamino)ethyl)(methyl)amino)-2-isopropoxypyridin-3-yl)amino)pyrimidin-4-yl)amino)phenyl)dimethylphosphine oxide] | 50 to 100 nM | 50~100 | 200~400 | ≤ 50 nM | ≥ 1000 nM
5 to 10 nM | 5 to 10 nM | CC(C)Oc1nc(N2CCC(N3CCN(C)CC3)CC2)ccc1Nc1ncc(Cl)c(Nc2ccccc2P(C)(C)=O)n1 [Example 8, (2-((5-chloro-2-((2-isopropoxy-6-(4-(4-methylpiperazin-1-yl)piperidin-1-yl)pyridin-3-yl)amino)pyrimidin-4-yl)amino)phenyl)dimethyl phosphine oxide] | 100 to 400 nM | 50~100 | 200~400 | ≤ 50 nM | ≥ 1000 nM
≤ 5 nM | 5 to 10 nM | CN(C)C1CCN(c2ccc(Nc3ncc(Cl)c(Nc4ccccc4P(C)(C)=O)n3)c(OCC(F)(F)F)n2)CC1 [Example 9, (2-((5-chloro-2-((6-(4-(dimethyaminono)piperidin-1-yl)-2-(2,2,2-trifluoroethoxy)pyridin-3-yl)amino)pyrimidin-4-yl)amino)phenyl)dimethylphosphine oxide] | 50 to 100 nM | 50~100 | 200~400 | ≤ 50 nM | ≥ 1000 nM
≤ 5 nM | 5 to 10 nM | CN1CCN(c2ccc(Nc3ncc(Cl)c(Nc4ccccc4P(C)(C)=O)n3)c(OCC(F)(F)F)n2)CC1 [Example 10, (2-((5-chloro-2-((6-(4-methylpiperazin-1-yl)-2-(2,2,2-trifluoroethoxy)pyridin-3-yl)amino)pyrimidin-4-yl)amino)phenyl)dimethylphosphine oxide] | 100 to 400 nM | 50~100 | 100~200 | ≤ 50 nM | ≥ 1000 nM
≤ 5 nM | 10 to 50 nM | CN(C)CCN(C)c1ccc(Nc2ncc(Cl)c(Nc3ccccc3P(C)(C)=O)n2)c(OCC(F)(F)F)n1 [Example 11, (2-((5-chloro-2-((6-((2-(dimethylamino)ethyl)(methyl)amino)-2-(2,2,2-trifluoroethoxy)pyridin-3-yl)amino)pyrimidin-4-yl)amino)phenyl)dimethylphosphine oxide] | 100 to 400 nM | 50~100 | 100~200 | 50 to 100 nM | ≥ 1000 nM
5 to 10 nM | 10 to 50 nM | CN1CCN(C2CCN(c3ccc(Nc4ncc(Cl)c(Nc5ccccc5P(C)(C)=O)n4)c(OCC(F)(F)F)n3)CC2)CC1 [Example 12, (2-((5-chloro-2-((6-(4-(4-methylpiperazin-1-yl)piperidin-1-yl)-2-(2,2,2-trifluoroethoxy)pyridin-3-yl)amino)pyrimidin-4-yl)amino)phenyl)dimethylphosphine oxide] | 50 to 100 nM | 0~50 | 111.30 | ≤ 50 nM | ≥ 1000 nM
5 to 10 nM | ≤ 5 nM | COc1nc(N2CCC(N(C)C)CC2)ccc1Nc1nc(Nc2ccccc2P(C)(C)=O)c2cc[nH]c2n1 [Example 13, (2-((2-((6-(4-(dimethylamino)piperidin-1-yl)-2-methoxypyridin-3-yl)amino)-7H-pyrrolo [2,3-d]pyrimidin-4-yl)amino)phenyl)dimethylphosphine oxide] | 50 to 100 nM | 0~50 | 0~50 | ≤ 50 nM | 400 to 1000 nM

Reference: US20210009613A1, “ARYLPHOSPHINE OXIDES FOR INHIBITING KINASE ACTIVITY” (Shenzhen TargetRx, Inc., priority 2017, published 2021)
